Columns and labels:
Format in all cases: cell-based
Settings in all cases: with inhibitor at 4 μg/mL
E. coli 1924 = test: Broth microdilution MIC (strain enzymes: TEM-12)
K. pneumoniae 304487 = test: Broth microdilution MIC (strain enzymes: SHV-12,TEM-1)
E. coli SI-V502 = test: Broth microdilution MIC (strain enzymes: TEM-29, CTX-M15)
K. pneumoniae ESBL 8 #1 = test: Broth microdilution MIC (strain enzymes: TEM-1, SHV-12)
E. coli 3327 = test: as above
E. coli 25922 = test: Broth microdilution MIC (strain enzymes: None detected)
E. coli 3174 = test: Broth microdilution MIC (strain enzymes: TEM-1, CTXM-15)
K. pneumoniae ESBL 8 #2 = test: Broth microdilution MIC (strain enzymes: SHV-12, TEM-1)
K. oxytoca 176877 = test: Broth microdilution MIC (strain enzymes: SHV-105)
E. coli BAS 1 = test: Broth microdilution MIC (strain enzymes: none detected)
E. coli SI-NO36 = test: Broth microdilution MIC (strain enzymes: SHV-11, TEM-1)
E. coli Si-FDL-GES = test: microbe, parasite or virus in culture
K. pneumoniae BAA 1705 = test: Broth microdilution MIC (strain KPC-producing)
K. pneumoniae ESBL 7 #1 = test: Broth microdilution MIC (strain enzymes: SHV-12, TEM-1)
K. pneumoniae KI (KCl) = test: Broth microdilution MIC (strain enzymes: TEM-10)
E. coli ESBL 5 = test: Broth microdilution MIC (strain enzymes: CTX-M15, TEM-1)
K. pneumoniae KP 4 = test: Broth microdilution MIC (strain enzymes: SHV-2a, SHV-5, TEM-1)
K. pneumoniae KP 3 = test: Broth microdilution MIC (strain enzymes: SHV-1, TEM-1)
K. oxytoca 496 #2 = test: Broth microdilution MIC (strain enzymes: SHV-105, TEM-1)
E. coli SI-M004 = test: Broth microdilution MIC (strain enzymes: SHV-2, GES-12)

For `O=C(O)[C@H]1/C(=C/CO)O[C@@H]2CC(=O)N21` [Clavulanic acid, clavulanic acid, reference compound], which “MIC of cefalexin (LEX)” value (E. coli 1924) is on record?
Its value is 0.5 µg/mL.

What about the “MIC of cefdinir (CDR)” value (E. coli 1924) of the same compound?
Its value is 0.5 µg/mL.

And the “MIC of cefixime (CFM)” value (E. coli 1924)?
Its value is 1 µg/mL.

And the “MIC of ceftibuten (CTB)” value (E. coli 1924)?
Its value is 0.5 µg/mL.

What about the “MIC of cefalexin (LEX)” value (K. pneumoniae 304487) of the same compound?
The value was 0.5 µg/mL.

And the “MIC of cefdinir (CDR)” value (K. pneumoniae 304487)?
Its value is 0.5 µg/mL.

And the “MIC of cefixime (CFM)” value (K. pneumoniae 304487)?
Its value is 0.25 µg/mL.

What about the “MIC of ceftibuten (CTB)” value (K. pneumoniae 304487) of the same compound?
Its value is 0.125 µg/mL.

What about the “MIC of cefalexin (LEX)” value (E. coli SI-V502) of the same compound?
Its value is 1 µg/mL.

And the “MIC of cefdinir (CDR)” value (E. coli SI-V502)?
Its value is 1 µg/mL.

What about the “MIC of cefixime (CFM)” value (E. coli SI-V502) of the same compound?
Its value is 1 µg/mL.

And the “MIC of ceftibuten (CTB)” value (E. coli SI-V502)?
The value was 0.5 µg/mL.

And the “MIC of cefalexin (LEX)” value (K. pneumoniae ESBL 8 #1)?
The value was 0.06 µg/mL.

And the “MIC of cefdinir (CDR)” value (K. pneumoniae ESBL 8 #1)?
The value was 0.06 µg/mL.

And the “MIC of cefixime (CFM)” value (K. pneumoniae ESBL 8 #1)?
The value was 0.06 µg/mL.

What about the “MIC of ceftibuten (CTB)” value (K. pneumoniae ESBL 8 #1) of the same compound?
Its value is 0.03 µg/mL.

What about the “MIC of cefalexin (LEX)” value (E. coli 3327) of the same compound?
Its value is 0.5 µg/mL.

What about the “MIC of cefdinir (CDR)” value (E. coli 3327) of the same compound?
The value was 0.5 µg/mL.

What about the “MIC of cefixime (CFM)” value (E. coli 3327) of the same compound?
The value was 2 µg/mL.

And the “MIC of ceftibuten (CTB)” value (E. coli 3327)?
The value was 1 µg/mL.

And the “MIC of cefalexin (LEX)” value (E. coli 25922)?
Its value is 0.25 µg/mL.

What about the “MIC of cefdinir (CDR)” value (E. coli 25922) of the same compound?
The value was 0.25 µg/mL.

What about the “MIC of cefixime (CFM)” value (E. coli 25922) of the same compound?
The value was 0.5 µg/mL.

And the “MIC of ceftibuten (CTB)” value (E. coli 25922)?
The value was 0.5 µg/mL.

And the “MIC of cefalexin (LEX)” value (E. coli 3174)?
The value was 0.25 µg/mL.

What about the “MIC of cefdinir (CDR)” value (E. coli 3174) of the same compound?
Its value is 0.25 µg/mL.

What about the “MIC of cefixime (CFM)” value (E. coli 3174) of the same compound?
The value was 0.5 µg/mL.

And the “MIC of ceftibuten (CTB)” value (E. coli 3174)?
Its value is 0.5 µg/mL.

What about the “MIC of cefalexin (LEX)” value (K. pneumoniae ESBL 8 #2) of the same compound?
Its value is 0.125 µg/mL.

And the “MIC of cefdinir (CDR)” value (K. pneumoniae ESBL 8 #2)?
Its value is 0.125 µg/mL.

What about the “MIC of cefixime (CFM)” value (K. pneumoniae ESBL 8 #2) of the same compound?
The value was 0.03 µg/mL.

And the “MIC of ceftibuten (CTB)” value (K. pneumoniae ESBL 8 #2)?
Its value is 0.06 µg/mL.

What about the “MIC of cefalexin (LEX)” value (K. oxytoca 176877) of the same compound?
The value was 2 µg/mL.

What about the “MIC of cefdinir (CDR)” value (K. oxytoca 176877) of the same compound?
The value was 2 µg/mL.

And the “MIC of cefixime (CFM)” value (K. oxytoca 176877)?
The value was 0.25 µg/mL.

And the “MIC of ceftibuten (CTB)” value (K. oxytoca 176877)?
Its value is 0.125 µg/mL.

What about the “MIC of cefalexin (LEX)” value (E. coli BAS 1) of the same compound?
The value was 16 µg/mL.

And the “MIC of cefdinir (CDR)” value (E. coli BAS 1)?
The value was 16 µg/mL.

And the “MIC of cefixime (CFM)” value (E. coli BAS 1)?
The value was over 32 µg/mL.

What about the “MIC of ceftibuten (CTB)” value (E. coli BAS 1) of the same compound?
The value was over 32 µg/mL.

What about the “MIC of cefalexin (LEX)” value (E. coli SI-NO36) of the same compound?
The value was 0.25 µg/mL.

And the “MIC of cefdinir (CDR)” value (E. coli SI-NO36)?
The value was 0.25 µg/mL.

And the “MIC of cefixime (CFM)” value (E. coli SI-NO36)?
The value was 0.5 µg/mL.

What about the “MIC of ceftibuten (CTB)” value (E. coli SI-NO36) of the same compound?
Its value is 0.25 µg/mL.

What about the “MIC of cefalexin (LEX)” value (E. coli Si-FDL-GES) of the same compound?
Its value is 1 µg/mL.

What about the “MIC of cefdinir (CDR)” value (E. coli Si-FDL-GES) of the same compound?
The value was 1 µg/mL.

And the “MIC of cefixime (CFM)” value (E. coli Si-FDL-GES)?
Its value is 0.5 µg/mL.

And the “MIC of ceftibuten (CTB)” value (E. coli Si-FDL-GES)?
Its value is 0.25 µg/mL.

What about the “MIC of cefalexin (LEX)” value (K. pneumoniae BAA 1705) of the same compound?
Its value is over 32 µg/mL.

And the “MIC of cefdinir (CDR)” value (K. pneumoniae BAA 1705)?
The value was over 32 µg/mL.

What about the “MIC of cefixime (CFM)” value (K. pneumoniae BAA 1705) of the same compound?
Its value is over 32 µg/mL.

And the “MIC of ceftibuten (CTB)” value (K. pneumoniae BAA 1705)?
The value was 8 µg/mL.

What about the “MIC of cefalexin (LEX)” value (K. pneumoniae ESBL 7 #1) of the same compound?
Its value is 0.5 µg/mL.

And the “MIC of cefdinir (CDR)” value (K. pneumoniae ESBL 7 #1)?
The value was 0.5 µg/mL.

What about the “MIC of cefixime (CFM)” value (K. pneumoniae ESBL 7 #1) of the same compound?
The value was 0.25 µg/mL.

And the “MIC of ceftibuten (CTB)” value (K. pneumoniae ESBL 7 #1)?
The value was 0.125 µg/mL.

What about the “MIC of cefalexin (LEX)” value (K. pneumoniae KI (KCl)) of the same compound?
The value was 0.125 µg/mL.

What about the “MIC of cefdinir (CDR)” value (K. pneumoniae KI (KCl)) of the same compound?
Its value is 0.125 µg/mL.

And the “MIC of cefixime (CFM)” value (K. pneumoniae KI (KCl))?
Its value is 0.125 µg/mL.

And the “MIC of ceftibuten (CTB)” value (K. pneumoniae KI (KCl))?
The value was 0.06 µg/mL.

And the “MIC of cefalexin (LEX)” value (E. coli ESBL 5)?
Its value is 1 µg/mL.

And the “MIC of cefdinir (CDR)” value (E. coli ESBL 5)?
Its value is 1 µg/mL.

And the “MIC of cefixime (CFM)” value (E. coli ESBL 5)?
The value was 1 µg/mL.

And the “MIC of ceftibuten (CTB)” value (E. coli ESBL 5)?
The value was 0.5 µg/mL.

What about the “MIC of cefalexin (LEX)” value (K. pneumoniae KP 4) of the same compound?
The value was 0.125 µg/mL.

And the “MIC of cefdinir (CDR)” value (K. pneumoniae KP 4)?
The value was 0.125 µg/mL.

And the “MIC of cefixime (CFM)” value (K. pneumoniae KP 4)?
The value was 0.125 µg/mL.

What about the “MIC of ceftibuten (CTB)” value (K. pneumoniae KP 4) of the same compound?
The value was 2 µg/mL.

And the “MIC of cefalexin (LEX)” value (K. pneumoniae KP 3)?
Its value is 1 µg/mL.

And the “MIC of cefdinir (CDR)” value (K. pneumoniae KP 3)?
The value was 1 µg/mL.

What about the “MIC of cefixime (CFM)” value (K. pneumoniae KP 3) of the same compound?
Its value is 0.5 µg/mL.

What about the “MIC of ceftibuten (CTB)” value (K. pneumoniae KP 3) of the same compound?
The value was 0.125 µg/mL.

And the “MIC of cefalexin (LEX)” value (K. oxytoca 496 #2)?
Its value is 0.06 µg/mL.

What about the “MIC of cefdinir (CDR)” value (K. oxytoca 496 #2) of the same compound?
The value was 0.06 µg/mL.

And the “MIC of cefixime (CFM)” value (K. oxytoca 496 #2)?
Its value is 0.03 µg/mL.

And the “MIC of ceftibuten (CTB)” value (K. oxytoca 496 #2)?
Its value is 0.125 µg/mL.

And the “MIC of cefalexin (LEX)” value (E. coli SI-M004)?
The value was 0.5 µg/mL.

What about the “MIC of cefdinir (CDR)” value (E. coli SI-M004) of the same compound?
Its value is 0.5 µg/mL.

And the “MIC of cefixime (CFM)” value (E. coli SI-M004)?
The value was 1 µg/mL.

And the “MIC of ceftibuten (CTB)” value (E. coli SI-M004)?
The value was 0.5 µg/mL.

Source: patent publication US12544395B2, “Combination compositions comprising a beta-lactamase inhibitor and uses thereof” (priority 2018, dated 2026)
